Measurements from patent publication US12404260B2, “Pyridine rings containing derivatives as MALT1 inhibitors” (Janssen Pharmaceutica NV, priority 2019, dated 2025).

Test system: secretion of IL10 by OCI-LY3 ABC-DLBCL cells
Experiment: Human IL10 Mesoscale assay (OCI-LY3)
Type: cell-based
Conditions: 24 h incubation, IL10 in supernatant
Protocol: (§1) NFKB signaling regulates the secretion of multiple cytokines, including IL6 and IL10. Secretion of the cytokines IL6 and IL10 by OCI-LY3 ABC-DLBCL cells was measured using a mesoscale assay. Inhibition of NFKB signaling by MALT1 inhibitors results in a decrease of IL6/10 secretion.
(§2) OCI-LY3 cells were propagated in RPMI-1640 (Sigma Aldrich) supplemented with 10% fetal bovine serum (HyClone), 1 mM sodium pyruvate (Invitrogen), 2 mM L-glutamine (Sigma Aldrich) and 1% PenStrep (Sigma Aldrich). Cell passage number should not exceed 30. Cells should be kept between 0.5-2.5 million cells per mL during culturing and cells should be supplemented every 2-3 days with fresh 50 μM beta-mercaptoethanol. No beta-mercaptoethanol was used during the mesoscale assay.
(§3) For the Mesoscale assay, 100,000 OCI-LY3 cells were seeded per well into black-colored 96-well plates with clear bottom (Corning #3904) and test compounds were added in 9 dilution steps (1:2) ranging from 15 μM to 58.6 nM (final DMSO concentration 0.3%). DMSO control wells were used to determine the maximum signal (High Control (HC)). Treatment with the BTK inhibitor RN486 in a dose range from 30 nM to […] (9 dilutions of 1:2) served as a positive control for NFKB pathway inhibition and was used to determine the maximum inhibition (Low Control (LC)). Compounds and cells were incubated for 24 h at 37° C. and 5% CO2 (assay volume is 150 μL). After 24 h of incubation 50 μL of the supernatant was transferred to a MSD plate (V-Plex Proinflammation Panel 1 (human) kit, Mesoscale (MSD)) and incubated for 2 h with vigorous shaking (600 rpm) at room temperature. Following incubation, plates were washed 3× with PBS+0.05% Tween-20 and 25 μL detection antibody solution (IL6 & IL10 antibodies in diluent 3 (MSD)) was added per well followed by 2 h of incubation with vigorous shaking (600 rpm) at room temperature. After 3× washes with PBS+0.05% Tween-20, plates were incubated with 150 μL 2× Read Buffer T and read on SECTOR imager.

Row | IC50 | SMILES
1 | 40 nM | COC(C)c1c(NC(=O)Nc2cnc(-n3nccn3)c(C(F)(F)F)c2)cnc(C(F)F)c1C#N (single isomer, unassigned) [Co. 127]
2 | 50 nM | CO[C@H](C)c1c(NC(=O)Nc2cnc(-n3nccn3)c(C#N)c2)cnc(C)c1Br [Co. 91]
3 | 5750 nM | COC(C)c1cc(C)ncc1NC(=O)Nc1cnc(-n2nccn2)c(Cl)c1 (racemic) [Co. 106]
4 | 450 nM | CO[C@H](C)c1c(NC(=O)Nc2cnc(-n3nccn3)c(Cl)c2)cnc(C)c1C#N [Co. 62]
5 | > 3020 nM | COC(C)c1c(C)cncc1NC(=O)Nc1cnc(-n2nccn2)c(Cl)c1 (racemic) [Co. 20]
6 | 1780 nM | CO[C@H](C)c1c(NC(=O)Nc2cnc(C3CC3)c(C(F)(F)F)c2)cnc(C)c1Cl [Co. 67]

Same assay, conditions: Homo sapiens, 24 h incubation, IL10 in supernatant

Row | IC50 | SMILES
7 | 70 nM | CO[C@@H](C)c1c(NC(=O)Nc2cnc(-n3nccn3)c(C(F)(F)F)c2)cnc(N)c1Br (single isomer, unassigned) [Co. 139]
8 | ~45 nM | CO[C@H](C)c1c(NC(=O)Nc2cnc(-n3nccn3)c(C(F)(F)F)c2)cnc(C(F)F)c1Br (single isomer, unassigned) [Co. 144]
9 | 1020 nM | [2H]C([2H])([2H])Oc1cncc(NC(=O)Nc2cnc(-n3nccn3)c(C(F)(F)F)c2)c1[C@H](C)OC (single isomer, unassigned) [Co. 129]
10 | 30 nM | CO[C@H](C)c1c(NC(=O)Nc2cnc(OC(F)F)c(Cl)c2)cnc(N)c1Cl (single isomer, unassigned) [Co. 136]
11 | ~890 nM | [2H]C([2H])([2H])O[C@@H](C)c1c(NC(=O)Nc2cnc(-n3nccn3)c(C(F)(F)F)c2)cncc1OC (single isomer, unassigned) [Co. 131]
12 | ~110 nM | [2H]C([2H])([2H])Oc1cncc(NC(=O)Nc2cnc(-n3nccn3)c(C(F)(F)F)c2)c1[C@@H](C)OC (single isomer, unassigned) [Co. 130]
13 | 140 nM | COc1cncc(NC(=O)Nc2cc(Cl)c(-n3nccn3)nc2OC)c1[C@H](C)OC (single isomer, unassigned) [Co. 141]
14 | 140 nM | CC[C@H](OC)c1c(NC(=O)Nc2cnc(-n3nccn3)c(C(F)(F)F)c2)cnc(C)c1C#N (single isomer, unassigned) [Co. 150]
15 | 470 nM | COc1cncc(NC(=O)Nc2cc(Cl)c(-n3nccn3)nc2OC)c1[C@@H](C)OC (single isomer, unassigned) [Co. 140]

Molecular target: T1, full-length MALT1 protein (Strep-MALT1(1-824)-His) (Homo sapiens, UniProt Q9UDY8)
T1 construct: full-length MALT1 protein (Strep-MALT1(1-824)-His) purified from baculovirus-infected insect cells; Strep (N); His (C); made in house; host or cells: baculovirus-infected insect cells
T1 sequence (Q9UDY8 1-824): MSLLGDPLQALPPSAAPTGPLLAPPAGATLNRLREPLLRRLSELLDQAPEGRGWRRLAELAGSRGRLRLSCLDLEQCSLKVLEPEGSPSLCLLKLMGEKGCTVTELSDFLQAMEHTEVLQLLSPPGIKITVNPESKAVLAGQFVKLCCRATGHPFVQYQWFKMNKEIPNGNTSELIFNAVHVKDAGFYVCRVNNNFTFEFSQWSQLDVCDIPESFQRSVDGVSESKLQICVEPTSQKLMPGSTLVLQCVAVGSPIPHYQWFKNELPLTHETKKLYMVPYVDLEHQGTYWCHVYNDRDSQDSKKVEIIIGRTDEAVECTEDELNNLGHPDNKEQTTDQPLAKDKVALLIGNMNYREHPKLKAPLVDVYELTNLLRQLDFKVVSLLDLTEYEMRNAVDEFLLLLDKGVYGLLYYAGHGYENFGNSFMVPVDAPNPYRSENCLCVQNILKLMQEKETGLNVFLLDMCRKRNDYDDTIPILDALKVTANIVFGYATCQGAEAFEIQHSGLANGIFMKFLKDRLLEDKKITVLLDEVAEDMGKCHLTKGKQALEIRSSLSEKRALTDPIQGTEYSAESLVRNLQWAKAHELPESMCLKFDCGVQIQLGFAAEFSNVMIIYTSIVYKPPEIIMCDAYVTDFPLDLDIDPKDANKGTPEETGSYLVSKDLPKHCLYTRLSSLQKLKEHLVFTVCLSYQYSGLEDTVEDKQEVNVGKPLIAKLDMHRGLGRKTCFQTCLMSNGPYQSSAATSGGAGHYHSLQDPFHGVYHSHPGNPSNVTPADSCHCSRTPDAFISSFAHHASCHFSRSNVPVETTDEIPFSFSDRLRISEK
Experiment: MALT1 Biochemical Protease Assay
Conditions: 10 nM FL MALT1, 200 μM Ac-LRSR-AMC, 50 min pre-incubation, 4 h at RT; read-out: MALT1_Biochemical activity (Ac-LRSR-amc) IC50
Protocol: MALT1 protease activity was assessed in an in vitro assay using a tetrapeptide as substrate and full-length MALT1 protein (Strep-MALT1(1-824)-His) purified from baculovirus-infected insect cells. The tetrapeptide LRSR is coupled to AMC (7-amino-4-methylcoumarin) and provides a quenched, fluorescent substrate for the MALT1 protease (SM Biochemicals). Cleavage of AMC from the Arginine residue results in an increase in coumarin fluorescence measured at 460 nm (excitation 355 nm). The final assay buffer consisted of 10 nM FL MALT1 protein, 200 μM Ac-LRSR-AMC, 50 mM Tris pH 7.5, 0.6 M Citrate, 1 mM DTT, 1 mM EDTA, 0.05% BSA and 1.5% DMSO. Test compounds were spotted at 50 nL in 100% DMSO per well of a black 384-Proxiplate (Perkin Elmer). Test compound concentrations ranged from 30 μM to 0.5 nM using 11 dilution steps (1:3). Background signal was measured from control wells containing assay buffer without enzyme which functions as low control (LC). High control (HC) values were generated using the reaction with enzyme but no compound treatment. Compounds were pre-incubated with MALT1 enzyme for 50 minutes at RT. Substrate was added subsequently and fluorescence was measured in Labsystems fluoroskan at excitation 355 nm and emission 460 nm to determine time 0. The reaction was subsequently incubated for 4 h at RT and fluorescence was measured. For IC50 calculations, timepoint 0 was subtracted from the 4 h timepoint to correct for any potential autofluorescence of the compounds. The enzyme reaction was linear during the 4 h incubation period. Characterization of the substrate Ac-LRSR-AMC determined the Michaelis constant KM at 200 μM.
IC50 values were calculated using the following formula (Z prime should be >0.5): […]
A best-fit curve was fitted by a minimum sum of squares method to the plot of % Controlmin vs. compound concentration. From this an IC50 value (inhibitory concentration causing 50% inhibition) can be obtained. An estimate of the slope of the plot in terms of the Hill coefficient was also obtained.
Used in “Lexis Dose Response Curve Fitting” Version 1.0.

Row | SMILES | IC50
16 | [2H]C([2H])([2H])Oc1cncc(NC(=O)Nc2cnc(-n3nccn3)c(C(F)(F)F)c2)c1[C@H](C)OC (single isomer, unassigned) [Co. 129] | 1380 nM
17 | COC(C)c1c(NC(=O)Nc2cnc(-n3nccn3)c(C(F)(F)F)c2)cnc(C(F)F)c1C#N (single isomer, unassigned) [Co. 127] | 30 nM
18 | CO[C@H](C)c1c(NC(=O)Nc2cnc(-n3nccn3)c(C#N)c2)cnc(C)c1Br [Co. 91] | 20 nM
19 | COC(C)c1cc(C)ncc1NC(=O)Nc1cnc(-n2nccn2)c(Cl)c1 (racemic) [Co. 106] | 9120 nM
20 | CO[C@H](C)c1c(NC(=O)Nc2cnc(-n3nccn3)c(Cl)c2)cnc(C)c1C#N [Co. 62] | 220 nM
21 | COC(C)c1c(C)cncc1NC(=O)Nc1cnc(-n2nccn2)c(Cl)c1 (racemic) [Co. 20] | 4170 nM
22 | CO[C@H](C)c1c(NC(=O)Nc2cnc(C3CC3)c(C(F)(F)F)c2)cnc(C)c1Cl [Co. 67] | 1950 nM

Results, then the compound that gave them:

Row | IC50 | SMILES
23 | 20 nM | CO[C@@H](C)c1c(NC(=O)Nc2cnc(-n3nccn3)c(C(F)(F)F)c2)cnc(N)c1Br (single isomer, unassigned) [Co. 139]
24 | 40 nM | CO[C@H](C)c1c(NC(=O)Nc2cnc(-n3nccn3)c(C(F)(F)F)c2)cnc(C(F)F)c1Br (single isomer, unassigned) [Co. 144]
25 | 60 nM | CO[C@H](C)c1c(NC(=O)Nc2cnc(OC(F)F)c(Cl)c2)cnc(N)c1Cl (single isomer, unassigned) [Co. 136]
26 | 1020 nM | [2H]C([2H])([2H])O[C@@H](C)c1c(NC(=O)Nc2cnc(-n3nccn3)c(C(F)(F)F)c2)cncc1OC (single isomer, unassigned) [Co. 131]
27 | 50 nM | [2H]C([2H])([2H])Oc1cncc(NC(=O)Nc2cnc(-n3nccn3)c(C(F)(F)F)c2)c1[C@@H](C)OC (single isomer, unassigned) [Co. 130]
28 | 60 nM | COc1cncc(NC(=O)Nc2cc(Cl)c(-n3nccn3)nc2OC)c1[C@H](C)OC (single isomer, unassigned) [Co. 141]
29 | 100 nM | CC[C@H](OC)c1c(NC(=O)Nc2cnc(-n3nccn3)c(C(F)(F)F)c2)cnc(C)c1C#N (single isomer, unassigned) [Co. 150]
30 | ~620 nM | COc1cncc(NC(=O)Nc2cc(Cl)c(-n3nccn3)nc2OC)c1[C@@H](C)OC (single isomer, unassigned) [Co. 140]

Test system: secretion of IL6 by OCI-LY3 ABC-DLBCL cells
Experiment: Human IL6 Mesoscale assay (OCI-LY3)
Type: cell-based
Conditions: 24 h incubation, IL6 in supernatant
Protocol: as §1, §2, §3

Row | IC50 | SMILES
31 | 60 nM | COC(C)c1c(NC(=O)Nc2cnc(-n3nccn3)c(C(F)(F)F)c2)cnc(C(F)F)c1C#N (single isomer, unassigned) [Co. 127]
32 | 90 nM | CO[C@H](C)c1c(NC(=O)Nc2cnc(-n3nccn3)c(C#N)c2)cnc(C)c1Br [Co. 91]
33 | 7240 nM | COC(C)c1cc(C)ncc1NC(=O)Nc1cnc(-n2nccn2)c(Cl)c1 (racemic) [Co. 106]
34 | 750 nM | CO[C@H](C)c1c(NC(=O)Nc2cnc(-n3nccn3)c(Cl)c2)cnc(C)c1C#N [Co. 62]
35 | > 3020 nM | COC(C)c1c(C)cncc1NC(=O)Nc1cnc(-n2nccn2)c(Cl)c1 (racemic) [Co. 20]
36 | 4170 nM | CO[C@H](C)c1c(NC(=O)Nc2cnc(C3CC3)c(C(F)(F)F)c2)cnc(C)c1Cl [Co. 67]

Same assay, conditions: Homo sapiens, 24 h incubation, IL6 in supernatant

Row | IC50 | SMILES
37 | ~100 nM | CO[C@@H](C)c1c(NC(=O)Nc2cnc(-n3nccn3)c(C(F)(F)F)c2)cnc(N)c1Br (single isomer, unassigned) [Co. 139]
38 | 60 nM | CO[C@H](C)c1c(NC(=O)Nc2cnc(-n3nccn3)c(C(F)(F)F)c2)cnc(C(F)F)c1Br (single isomer, unassigned) [Co. 144]
39 | 2290 nM | [2H]C([2H])([2H])Oc1cncc(NC(=O)Nc2cnc(-n3nccn3)c(C(F)(F)F)c2)c1[C@H](C)OC (single isomer, unassigned) [Co. 129]
40 | 60 nM | CO[C@H](C)c1c(NC(=O)Nc2cnc(OC(F)F)c(Cl)c2)cnc(N)c1Cl (single isomer, unassigned) [Co. 136]
41 | 2340 nM | [2H]C([2H])([2H])O[C@@H](C)c1c(NC(=O)Nc2cnc(-n3nccn3)c(C(F)(F)F)c2)cncc1OC (single isomer, unassigned) [Co. 131]
42 | 190 nM | [2H]C([2H])([2H])Oc1cncc(NC(=O)Nc2cnc(-n3nccn3)c(C(F)(F)F)c2)c1[C@@H](C)OC (single isomer, unassigned) [Co. 130]
43 | 130 nM | COc1cncc(NC(=O)Nc2cc(Cl)c(-n3nccn3)nc2OC)c1[C@H](C)OC (single isomer, unassigned) [Co. 141]
44 | 150 nM | CC[C@H](OC)c1c(NC(=O)Nc2cnc(-n3nccn3)c(C(F)(F)F)c2)cnc(C)c1C#N (single isomer, unassigned) [Co. 150]
45 | 540 nM | COc1cncc(NC(=O)Nc2cc(Cl)c(-n3nccn3)nc2OC)c1[C@@H](C)OC (single isomer, unassigned) [Co. 140]
